Results on 15 molecules are retold here after US20240391954A1, “MC4R AGONIST PEPTIDES” (The Regents of the University of Michigan, priority 2021, published 2024).

Positions of bridges follow the written chain, without caps; N, C: chain ends. Non-standard residues stand in square brackets, D forms with d. Residues, ends and D or L forms follow the SMILES beside them. d(αMeF) = C[C@@](N)(Cc1ccccc1)C(=O)O; 4Pal = N[C@@H](Cc1ccncc1)C(=O)O; Cit = NC(=O)NCCC[C@H](N)C(=O)O; Nle = CCCC[C@H](N)C(=O)O; Aib = CC(C)(N)C(=O)O

Holding throughout (format): cell-based
In assay [1] the target is T1, human MC4R (Homo sapiens, UniProt P32245).
T1 construct: host or cells: HEK-293 cells stably expressing the GScAMP22F split-luciferase cAMP sensor and hMC4R, G418 selection
The assay is described as follows: split-luciferase cAMP sensor assay, agonist mode (measurement window 1), hMC4R. The note with it: agonist mode; for Emax: % maximal activation, read-out: MC4R cAMP % max activation; for EC50: HEK-293 cells stably expressing hMC4R, read-out: MC4R cAMP EC50. Summed up:
(§1)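 EC50 values come from a four-parameter variable-slope fit of luminescence in measurement window 1, capturing direct peptide effects on receptor-expressing cells with a cAMP22f luciferase sensor. Cells were preloaded with 4% D-luciferin, serum-free medium; 20 μM forskolin normalized for cell number and transducer efficiency.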

Assay [2] concerns the target T2, human MC3R (Homo sapiens, UniProt P41968).
T2 construct: expressed in transfected cells; host or cells: HEK-293 cells stably expressing the GScAMP22F split-luciferase cAMP sensor (parent reporter line from Promega); MC3R clone generated in-house, G418 selection
Nature of the assay: split-luciferase cAMP sensor assay, agonist mode (measurement window 1), hMC3R. The conditions noted are these: for Emax: % maximal activation, read-out: MC3R cAMP % max activation; for Emax / EC50: agonist mode; for MC4R selectivity vs MC3R: MC4R versus MC3R; for EC50: HEK-293 cells stably expressing hMC3R, read-out: MC3R cAMP EC50. The gist of the method: as §1

Assay [3] concerns the target T3, human MC1R (Homo sapiens, UniProt Q01726).
T3 construct: expressed in transfected cells; host or cells: HEK-293 cells stably expressing hMC1R and the GScAMP22F cAMP sensor
The assay is described as follows: split-luciferase cAMP sensor assay, agonist mode, hMC1R. The note with it: MC4R versus MC1R. The gist of the method: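 HEK-293 cells stably expressing hMC1R and the GScAMP22F split-luciferase cAMP sensor, preloaded 120 min at 37° C with D-luciferin in serum-free medium. Peptide responses were taken as peak luminescence over 2-13 min minus 2-min baseline, normalized to the α-MSH ECmax. EC50 was obtained from a four-parameter variable-slope fit.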

T2 sequence (P41968 whole entry): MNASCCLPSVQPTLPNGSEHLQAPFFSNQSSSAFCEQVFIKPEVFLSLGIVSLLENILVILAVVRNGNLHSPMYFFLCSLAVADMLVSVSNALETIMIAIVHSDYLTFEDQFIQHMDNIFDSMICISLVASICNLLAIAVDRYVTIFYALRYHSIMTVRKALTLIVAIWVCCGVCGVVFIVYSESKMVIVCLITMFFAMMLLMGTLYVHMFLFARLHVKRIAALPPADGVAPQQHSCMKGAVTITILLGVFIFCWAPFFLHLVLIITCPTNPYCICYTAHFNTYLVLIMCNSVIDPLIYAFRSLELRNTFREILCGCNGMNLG
T1 sequence (P32245 whole entry): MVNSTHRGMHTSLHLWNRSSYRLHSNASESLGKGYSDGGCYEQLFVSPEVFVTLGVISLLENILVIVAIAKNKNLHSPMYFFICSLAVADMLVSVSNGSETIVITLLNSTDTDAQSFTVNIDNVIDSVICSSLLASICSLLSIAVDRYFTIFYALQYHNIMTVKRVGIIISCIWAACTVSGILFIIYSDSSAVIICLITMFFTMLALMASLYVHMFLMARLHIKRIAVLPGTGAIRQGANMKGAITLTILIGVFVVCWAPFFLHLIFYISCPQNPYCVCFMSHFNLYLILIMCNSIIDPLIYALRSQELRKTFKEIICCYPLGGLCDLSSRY
T3 sequence (Q01726 whole entry): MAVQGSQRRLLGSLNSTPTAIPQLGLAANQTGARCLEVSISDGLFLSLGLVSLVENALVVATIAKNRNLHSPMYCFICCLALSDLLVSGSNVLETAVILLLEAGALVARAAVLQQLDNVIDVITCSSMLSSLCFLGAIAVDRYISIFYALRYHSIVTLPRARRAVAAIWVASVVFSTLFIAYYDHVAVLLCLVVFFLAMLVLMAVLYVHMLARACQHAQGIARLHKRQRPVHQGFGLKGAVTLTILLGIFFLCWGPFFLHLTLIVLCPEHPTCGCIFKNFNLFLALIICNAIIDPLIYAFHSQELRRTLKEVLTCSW

In the case of `CC(=O)N[C@@H](CCCNC(=N)N)C(=O)N[C@H]1CSSC[C@@H](C(N)=O)NC(=O)[C@H](Cc2c[nH]c3ccccc23)NC(=O)[C@H](CCCNC(=N)N)NC(=O)[C@@H](Cc2ccccc2)NC(=O)[C@H](CCCNC(N)=O)NC(=O)CNC1=O` [CTX-1294, Arg-cyclo(Cys-Gly-Cit-D-Phe-Arg-Trp-Cys)] (Ac-RCG[Cit][dF]RWC-NH2; disulfide 2-8 (inferred)), the Emax in assay [1] is 102%; in assay [2] it was 33%. Also, the “MC4R selectivity vs MC3R” value in assay [2] worked out at 11. Further, the “MC4R selectivity vs MC1R” value in assay [3] is 111.

With `CC1(C)NC(=O)CSC[C@@H](C(N)=O)NC(=O)[C@H](Cc2c[nH]c3ccccc23)NC(=O)[C@H](CCCNC(=N)N)NC(=O)[C@@H](Cc2ccccc2)NC(=O)[C@H](CCCNC(=N)N)NC1=O` [CTX-1648, Thioether-cyclo(Aib-Arg-D-Phe-Arg-Trp-Cys)] ({CH2CO}-[Aib]R[dF]RWC-NH2; thioether N-6), the Emax in assay [1] came to 101%. In assay [2], the Emax is 91%, the EC50 came to 72 nM and the “MC4R selectivity vs MC3R” value came to 63. Besides, the “MC4R selectivity vs MC1R” value in assay [3] came to 13.

Regarding `CCCC[C@H](NC(=O)[C@H](CCCNC(=N)N)NC(C)=O)C(=O)N[C@H]1CSSC[C@@H](C(N)=O)NC(=O)[C@H](Cc2ccccc2)NC(=O)[C@H](CCCNC(=N)N)NC(=O)[C@@H](Cc2ccccc2)NC(=O)[C@H](CCCNC(=N)N)NC1=O` [CTX-1622, Arg-Nle-cyclo(Cys-Arg-D-Phe-Arg-Phe-Cys)] (Ac-R[Nle]CR[dF]RFC-NH2; disulfide 3-8 (inferred)), the Emax in assay [1] turned out to be 101%. In assay [2], the Emax was found to be 100%, the EC50 was found to be 13 nM and the “MC4R selectivity vs MC3R” value was determined as 0.32. Further, the “MC4R selectivity vs MC1R” value in assay [3] was 0.39.

On to `CC(=O)N[C@@H](CCCNC(=N)N)C(=O)N[C@H]1CSSC[C@@H](C(N)=O)NC(=O)[C@H](Cc2c[nH]c3ccccc23)NC(=O)[C@H](CCCNC(=N)N)NC(=O)[C@@](C)(Cc2ccccc2)NC(=O)[C@H](CCCNC(=N)N)NC(=O)[C@@H](C)NC1=O` [CTX-1278] (Ac-RC[dA]R[d(αMeF)]RWC-NH2; disulfide 2-8 (inferred)), for which the Emax was 105% in assay [1] and 86% in assay [2]. Further, in assay [2], the “MC4R selectivity vs MC3R” value is listed as 12. Besides, in assay [3], the “MC4R selectivity vs MC1R” value is 1.13.

Take `CCCC[C@H](NC(=O)[C@H](CCCNC(=N)N)NC(C)=O)C(=O)N[C@H]1CSSC[C@@H](C(N)=O)NC(=O)[C@H](Cc2ccccc2)NC(=O)[C@H](CCCNC(=N)N)NC(=O)[C@@H](Cc2ccccc2)NC(=O)[C@H](CCCNC(N)=O)NC1=O` [CTX-1626, Arg-Nle-cyclo(Cys-Cit-D-Phe-Arg-Phe-Cys)] (Ac-R[Nle]C[Cit][dF]RFC-NH2; disulfide 3-8 (inferred)): the Emax in assay [1] stood at 83%. In assay [2], the Emax was 51% and the “MC4R selectivity vs MC3R” value is reported as 1.6. Also, in assay [3], the “MC4R selectivity vs MC1R” value worked out at 3.05.

On to `CC(=O)N[C@H]1CSSC[C@@H](C(N)=O)NC(=O)[C@H](Cc2c[nH]c3ccccc23)NC(=O)[C@H](CCCNC(=N)N)NC(=O)[C@@H](Cc2ccccc2)NC(=O)[C@H](CCCNC(N)=O)NC(=O)C(C)(C)NC1=O` [CTX-1633, cyclo(Cys-Aib-Cit-D-Phe-Arg-Trp-Cys)] (Ac-C[Aib][Cit][dF]RWC-NH2; disulfide 1-7 (inferred)), for which the Emax in assay [1] stood at 110%. In assay [2], the Emax turned out to be 45% and the “MC4R selectivity vs MC3R” value stood at 104. In addition, the “MC4R selectivity vs MC1R” value in assay [3] is recorded as 942.

As to `CC(=O)N[C@@H](CCCNC(=N)N)C(=O)N[C@H]1CSSC[C@@H](C(N)=O)NC(=O)[C@H](Cc2ccccc2)NC(=O)[C@H](CCCNC(=N)N)NC(=O)[C@@H](Cc2ccccc2)NC(=O)[C@H](Cc2ccncc2)NC(=O)C(C)(C)NC1=O` [CTX-1606, Arg-cyclo(Cys-Aib-Pal(4′)-D-Phe-Arg-Phe-Cys)] (Ac-RC[Aib][4Pal][dF]RFC-NH2; disulfide 2-8 (inferred)), the Emax is 92% in assay [1] and 7.69% in assay [2]. Further, the “MC4R selectivity vs MC3R” value in assay [2] was 0.62. The “MC4R selectivity vs MC1R” value in assay [3] was 2.99.

As for `CC(=O)N[C@@H](CCCNC(=N)N)C(=O)N[C@H]1CSSC[C@@H](C(N)=O)NC(=O)[C@H](Cc2c[nH]c3ccccc23)NC(=O)[C@H](CCCNC(=N)N)NC(=O)[C@@H](Cc2ccccc2)NC(=O)[C@H](CCCNC(=N)N)NC(=O)[C@H](C)NC1=O` [CTX-1267, Arg-cyclo(Cys-Ala-Arg-D-Phe-Arg-Trp-Cys)] (Ac-RCAR[dF]RWC-NH2; disulfide 2-8), in assay [1], the Emax came out at 96% and the EC50 was 3 nM. In assay [2], the Emax is 40%, the EC50 amounted to 12 nM and the “MC4R selectivity vs MC3R” value was found to be 4.07. For the same molecule, in assay [3], the “MC4R selectivity vs MC1R” value is reported as 0.5.

In the case of `N=C(N)NCCC[C@@H]1NC(=O)[C@@H](Cc2ccccc2)NC(=O)[C@H](Cc2c[nH]cn2)NC(=O)CNC(=O)CSC[C@@H](C(N)=O)NC(=O)[C@H](Cc2c[nH]c3ccccc23)NC1=O` [CTX-1644, Thioether-cyclo(Gly-His-D-Phe-Arg-Trp-Cys)] ({CH2CO}-GH[dF]RWC-NH2; thioether N-6), in assay [1], the Emax worked out at 111% and the EC50 was found to be 2.3 nM. In assay [2], the Emax came to 107% and the “MC4R selectivity vs MC3R” value was found to be 53. Besides, the “MC4R selectivity vs MC1R” value in assay [3] was 4.84.

For `CC1(C)NC(=O)CSC[C@@H](C(N)=O)NC(=O)[C@H](Cc2c[nH]c3ccccc23)NC(=O)[C@H](CCCNC(=N)N)NC(=O)[C@@H](Cc2ccccc2)NC(=O)[C@H](CCCNC(N)=O)NC1=O` [CTX-1649, Thioether-cyclo(Aib-Cit-D-Phe-Arg-Trp-Cys)] ({CH2CO}-[Aib][Cit][dF]RWC-NH2; thioether N-6), the Emax in assay [1] came out at 97%. For the same molecule, in assay [2], the Emax was found to be 79% and the “MC4R selectivity vs MC3R” value was determined as 72. For the same molecule, the “MC4R selectivity vs MC1R” value in assay [3] is 1652.

In the case of `CC(=O)N[C@@H](CCCNC(=N)N)C(=O)N[C@H]1CSSC[C@@H](C(N)=O)NC(=O)[C@@H](Cc2c[nH]c3ccccc23)NC(=O)[C@H](CCCNC(=N)N)NC(=O)[C@@H](Cc2ccccc2)NC(=O)[C@H](CCCNC(N)=O)NC(=O)C(C)(C)NC1=O` [CTX-1290, Arg-cyclo(Cys-Aib-Cit-D-Phe-Arg-D-Trp-Cys)] (Ac-RC[Aib][Cit][dF]R[dW]C-NH2; disulfide 2-8), in assay [1], the Emax turned out to be 88%. In addition, in assay [2], the Emax is 20%, the EC50 was 1040 nM and the “MC4R selectivity vs MC3R” value is 9.23. Moreover, the “MC4R selectivity vs MC1R” value in assay [3] is 10.

In the case of `C[C@H]1NC(=O)CSC[C@@H](C(N)=O)NC(=O)[C@H](Cc2c[nH]c3ccccc23)NC(=O)[C@H](CCCNC(=N)N)NC(=O)[C@@H](Cc2ccccc2)NC(=O)[C@H](CCCNC(N)=O)NC1=O` [CTX-1643, Thioether-cyclo(D-Ala-Cit-D-Phe-Arg-Trp-Cys)] ({CH2CO}-[dA][Cit][dF]RWC-NH2; thioether N-6), the Emax in assay [1] was determined as 111%; in assay [2], 81%. Besides, the “MC4R selectivity vs MC3R” value in assay [2] is 133. In assay [3], the “MC4R selectivity vs MC1R” value was found to be 261.

Take `CC(=O)N[C@H]1CSSC[C@@H](C(N)=O)NC(=O)[C@H](Cc2c[nH]c3ccccc23)NC(=O)[C@H](CCCNC(=N)N)NC(=O)[C@@H](Cc2ccccc2)NC(=O)[C@H](CCCNC(=N)N)NC(=O)[C@@H](C)NC1=O` [CTX-1627, cyclo(Cys-D-Ala-Arg-D-Phe-Arg-Trp-Cys)] (Ac-C[dA]R[dF]RWC-NH2; disulfide 1-7 (inferred)): in assay [1], the Emax was 104% and the EC50 was determined as 1.4 nM. Further, in assay [2], the Emax came out at 98%, the EC50 came to 3.7 nM and the “MC4R selectivity vs MC3R” value is listed as 2.47. Further, the “MC4R selectivity vs MC1R” value in assay [3] came out at 9.33.

Turning to `COc1ccc(C[C@H]2NC(=O)[C@H](CCCNC(=N)N)NC(=O)C(C)(C)NC(=O)[C@@H](NC(=O)[C@H](CCCNC(=N)N)NC(C)=O)CSSC[C@@H](C(N)=O)NC(=O)[C@H](Cc3ccccc3)NC(=O)[C@H](CCCNC(=N)N)NC2=O)cc1` [CTX-1298, Arg-cyclo(Cys-Aib-Arg-D-Tyr(4-OMe)-Arg-Phe-Cys)] (Ac-RC[Aib]R[dY](Me)RFC-NH2; disulfide 2-8 (inferred)), in assay [1], the Emax came out at 93% and the EC50 came out at 3.3 nM. In addition, in assay [2], the EC50 was over 10000 nM and the “MC4R selectivity vs MC3R” value was 0.93. The “MC4R selectivity vs MC1R” value in assay [3] stood at 0.12.

Consider `N=C(N)NCCC[C@@H]1NC(=O)[C@@H](Cc2ccccc2)NC(=O)[C@H](CCCNC(N)=O)NC(=O)CNC(=O)CSC[C@@H](C(N)=O)NC(=O)[C@H](Cc2ccccc2)NC1=O` [CTX-1655, Thioether-cyclo(Gly-Cit-D-Phe-Arg-Phe-Cys)] ({CH2CO}-G[Cit][dF]RFC-NH2; thioether N-6), for which the EC50 in assay [1] is over 10000 nM. In assay [2], the EC50 was over 10000 nM and the “MC4R selectivity vs MC3R” value is “Not active”. For the same molecule, the “MC4R selectivity vs MC1R” value in assay [3] is “Not active”.

In general, EC50 refers to the concentration giving half of the maximal effect.
